Structures can show the parent of a compound that is named as a salt. Where two headings read alike, the source gives them in different places.
Columns and labels:
[1] = target: T1, human NTCP (Homo sapiens, UniProt Q14973); assay: Screening taurocholate uptake assay (96-well, [14C]taurocholate, 10 µM drug)
T1 sequence (Q14973 1-349): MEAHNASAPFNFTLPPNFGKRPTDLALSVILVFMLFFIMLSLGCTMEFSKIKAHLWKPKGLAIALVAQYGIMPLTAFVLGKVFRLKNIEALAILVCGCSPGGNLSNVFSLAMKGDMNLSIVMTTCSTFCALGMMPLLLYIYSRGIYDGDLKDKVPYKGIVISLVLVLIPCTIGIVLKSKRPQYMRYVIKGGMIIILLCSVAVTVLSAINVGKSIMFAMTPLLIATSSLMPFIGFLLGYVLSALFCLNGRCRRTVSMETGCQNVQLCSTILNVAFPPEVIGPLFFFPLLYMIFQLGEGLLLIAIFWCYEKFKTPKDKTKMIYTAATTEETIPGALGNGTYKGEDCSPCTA

[2] = target: T1, human NTCP; assay: Screening fluorescent competitive Myrcludex B-FITC binding assay (96-well, 10 µM drug)
[3] = combined ranking from functional and binding screening assays
[4] = screen, 10 µM drug, taurocholate uptake
[5] = screen, 10 µM drug, Myrcludex B-FITC binding
[6] = ranking score beside the functional and binding assay B-scores of the screen
[7] = Prestwick library screen, Myrcludex B-FITC binding, 10 µM drug
[8] = Prestwick library screen, 10 µM drug, B-score of taurocholate uptake
[9] = combined ranking from functional and binding assay B-scores
[10] = Prestwick library screen, 10 µM drug, B-score of Myrcludex B-FITC binding
[11] = Prestwick library screen, taurocholate uptake, 10 µM drug

Compound	Ranking score [1, 3]	B-score functional assay [1, 4]	B-score binding assay [2, 5]	Ranking score [1, 6]	B-score binding assay [2, 7]	B-score functional assay [1, 11]	other results
C[C@]12CCC(=O)C=C1C=C[C@@H]1[C@@H]2CC[C@@]2(C)[C@H]1CC[C@@]21CCC(=O)O1 [Canrenone]	379.419	-0.551	-0.43	–	–	–	–
C[C@H](CS)C(=O)N1CCC[C@H]1C(=O)O [Captopril]	–	–	–	728.08	0.648	–	–
COC(=O)N/N=C/c1c[n+]([O-])c2ccccc2[n+]1[O-] [Carbadox]	–	–	–	–	–	–	B-score functional assay [1, 8]: 0.663; Ranking score [1, 9]: 963.5; B-score binding assay [2, 10]: 0.674
NC(=O)N1c2ccccc2C=Cc2ccccc21 [Carbamazepine]	–	–	–	671.795	0.183	-0.062	–
CCN(CC)CCOCCOC(=O)C1(c2ccccc2)CCCC1 [Carbetapentane citrate]	–	–	–	–	–	–	B-score functional assay [1, 8]: 0.114; Ranking score [1, 9]: 943.43; B-score binding assay [2, 10]: 1.7
CN(C)CCOC(c1ccc(Cl)cc1)c1ccccn1.O=C(O)/C=C\C(=O)O (centres unmarked) [Carbinoxamine maleate salt]	433.532	3.2	-1.565	–	–	–	–
CCCC(C)(COC(N)=O)COC(=O)NC(C)C (centres unmarked) [Carisoprodol]	–	–	–	768.775	3.83	-0.248	–
CCCCCCNC(=O)n1cc(F)c(=O)[nH]c1=O [Carmofur]	358.68	-2.036	0.877	–	–	–	–
CC(C(=O)O)c1ccc2c(c1)[nH]c1ccc(Cl)cc12 (centres unmarked) [Carprofen]	288.205	-2.152	0.048	–	–	–	–
COc1ccccc1OCCNCC(O)COc1cccc2[nH]c3ccccc3c12 (centres unmarked) [Carvedilol]	348.775	-0.341	-0.836	–	–	–	–
CCC1=C[C@@H]2CN3CCc4c([nH]c5ccccc45)[C@@](C(=O)OC)(C2)[C@@H]13 [Catharanthine]	448.328	-0.613	-0.047	–	–	–	–
N[C@@H](C(=O)N[C@@H]1C(=O)N2C(C(=O)O)=C(Cl)CS[C@H]12)c1ccccc1.O [Cefaclor hydrate]	381.916	-0.668	-0.309	–	–	–	–
CC1=C(C(=O)O)N2C(=O)[C@@H](NC(=O)[C@H](N)c3ccc(O)cc3)[C@H]2SC1 [Cefadroxil]	439.805	-0.032	-0.675	–	–	–	–
Cc1nnc(SCC2=C(C(=O)O)N3C(=O)[C@@H](NC(=O)Cn4cnnn4)[C@H]3SC2)s1 [Cefazolin sodium salt]	–	–	–	718.895	0.04	0.093	–
CO/N=C(\C(=O)N[C@@H]1C(=O)N2C(C(=O)O)=C(COC(C)=O)CS[C@H]12)c1csc(N)n1 [Cefotaxime sodium salt]	382.157	3.35	-1.895	–	–	–	–
CO[C@@]1(NC(=O)C2SC(=C(C(N)=O)C(=O)O)S2)C(=O)N2C(C(=O)O)=C(CSc3nnnn3C)CS[C@@H]21 (some centres unmarked) [Cefotetan]	–	–	–	655.496	-0.646	4.862	–
CO[C@@]1(NC(=O)Cc2cccs2)C(=O)N2C(C(=O)O)=C(COC(N)=O)CS[C@@H]21 [Cefoxitin sodium salt]	–	–	–	–	–	–	B-score functional assay [1, 8]: 1.114; Ranking score [1, 9]: 868.493; B-score binding assay [2, 10]: 0.041
CC=CC1=C(C(=O)O)N2C(=O)[C@@H](NC(=O)[C@H](N)c3ccc(O)cc3)[C@H]2SC1 [Cefprozil]	364.678	0.201	-1.441	–	–	–	–

Compound	Ranking score [1, 3]	B-score functional assay [1, 4]	B-score binding assay [2, 5]	Ranking score [1, 6]	B-score binding assay [2, 7]	B-score functional assay [1, 11]	other results
NC(=O)c1cc[n+](CC2=C(C(=O)O)N3C(=O)[C@@H](NC(=O)[C@@H](c4ccccc4)S(=O)(=O)[O-])[C@H]3SC2)cc1 [Cefsulodin sodium salt]	–	–	–	669.358	-0.269	0.682	–
Nc1nc(/C(=C/CC(=O)O)C(=O)N[C@@H]2C(=O)N3C(C(=O)O)=CCS[C@H]23)cs1 [Ceftibuten]	–	–	–	–	–	–	B-score functional assay [1, 8]: 0.671; Ranking score [1, 9]: 1026.13; B-score binding assay [2, 10]: 1.253
CO/N=C(\C(=O)N[C@@H]1C(=O)N2C(C(=O)O)=C(COC(N)=O)CS[C@H]12)c1ccco1 [Cefuroxime sodium salt]	–	–	–	660.887	-0.123	0.233	–
Cc1ccc(-c2cc(C(F)(F)F)nn2-c2ccc(S(N)(=O)=O)cc2)cc1 [Celecoxib]	–	–	–	728.485	0.033	0.148	–
CCN(CC)C(=O)Nc1ccc(OCC(O)CNC(C)(C)C)c(C(C)=O)c1 (centres unmarked) [Celiprolol HCl]	–	–	–	–	–	–	B-score functional assay [1, 8]: 0.793; Ranking score [1, 9]: 1068.26; B-score binding assay [2, 10]: 1.474
CC(=O)OCC1=C(C(=O)O)N2C(=O)[C@@H](N)[C@H]2SC1 [Cephalosporanic acid, 7-amino]	–	–	–	–	–	–	B-score functional assay [1, 8]: 0.531; Ranking score [1, 9]: 845.501; B-score binding assay [2, 10]: 0.15
CC(=O)OCC1=C(C(=O)O)N2C(=O)[C@@H](NC(=O)Cc3cccs3)[C@H]2SC1 [Cephalothin sodium salt]	427.172	-1.381	0.561	–	–	–	–
O=C(O)COCCN1CCN(C(c2ccccc2)c2ccc(Cl)cc2)CC1 (centres unmarked) [Cetirizine dihydrochloride]	–	–	–	820.204	0.001	0.907	–
CN1C(=O)CCS(=O)(=O)C1c1ccc(Cl)cc1 (centres unmarked) [Chlormezanone]	–	–	–	–	–	–	B-score functional assay [1, 8]: 0.286; Ranking score [1, 9]: 979.274; B-score binding assay [2, 10]: 1.516
CN(C)CCN(Cc1ccc(Cl)cc1)c1ccccn1.Cl [Chloropyramine hydrochloride]	387.298	-2.146	2.853	–	–	–	–
CCN(CC)CCCC(C)Nc1ccnc2cc(Cl)ccc12 (centres unmarked) [Chloroquine diphosphate]	–	–	–	–	–	–	B-score functional assay [1]: 0.222; Ranking score [1]: 726.833; B-score binding assay [2]: 0.002
NS(=O)(=O)c1cc2c(cc1Cl)N=CNS2(=O)=O [Chlorothiazide]	–	–	–	–	–	–	B-score functional assay [1, 8]: 1.41; Ranking score [1, 9]: 967.179; B-score binding assay [2, 10]: 0.263
COc1ccc(C(Cl)=C(c2ccc(OC)cc2)c2ccc(OC)cc2)cc1 [Chlorotrianisene]	–	–	–	–	–	–	B-score functional assay [1, 8]: 0.481; Ranking score [1, 9]: 983.616; B-score binding assay [2, 10]: 1.19
CN(C)CCC(c1ccc(Cl)cc1)c1ccccn1 (centres unmarked) [Chlorpheniramine maleate]	–	–	–	–	–	–	B-score functional assay [1, 8]: 1.245; Ranking score [1, 9]: 1106.99; B-score binding assay [2, 10]: 1.318
CCCNC(=O)NS(=O)(=O)c1ccc(Cl)cc1 [Chlorpropamide]	–	–	–	766.984	-0.165	1.589	–
CN(C)CC/C=C1/c2ccccc2Sc2ccc(Cl)cc21 [Chlorprothixene hydrochloride]	–	–	–	661.498	-0.184	0.429	–
CN(C)[C@@H]1C(O)=C(C(N)=O)C(=O)[C@@]2(O)C(O)=C3C(=O)c4c(O)ccc(Cl)c4[C@@](C)(O)[C@H]3C[C@@H]12 [Chlortetracycline hydrochloride]	–	–	–	738.786	0.571	-0.045	–
